The values below come from article PMC10200060, “Inhibition of DAMP actions in the tumoral microenvironment using lactoferrin-glycyrrhizin conjugate for glioblastoma therapy” (Biomaterials Research, 2023).

In experiment [1] the test system is ERK phosphorylation. Put plainly: Western blot of phospho-ERK/ERK in HUVEC. It is filed as cell-based, human. Particulars: 24 h of treatment with HMGB1. On the procedure:
Total cellular protein concentration was determined using a BCA Protein Assay Kit (Pierce, Rockford, IL, USA). Equal amounts of protein from cell lysates were loaded onto a 12% sodium dodecyl sulfate–polyacrylamide gel. After electrophoresis, proteins were transferred to polyvinylidene fluoride membranes blocked with 5% bovine serum albumin for 1 h at room temperature and were diluted 1:500 with the indicated primary antibodies (rabbit anti-ERK1/2, anti-phospho-ERK1 and β-actin antibodies [Cell Signaling Technology, INC.]). Then, the membrane was washed 3 times for 15 min with tris-buffered saline containing Tween 20 and was incubated with HRP-conjugated secondary antibody for 1 h at room temperature. After washing three times for another 15 min with Tris-buffered saline with Tween 20, immune complexes were detected with an enriched chemiluminescent reagent (EZ-Western Lumi Femto, DoGen, South Korea) and staining was quantified by densitometry analysis using an Alpha Imager 2200.

For experiment [2], the system named is HUVEC. Put plainly: Capillary tube formation assay. It counts as cell-based, human. Particulars: HMGB1 (+) control vs HMGB1 (-) control, 24 h. As for the experimental part:
A 24-well plate was coated with of Matrigel® (200 μL, Corning, NY, USA) and was incubated for 30 min in 37℃ incubators. HUVECs were seeded upon a coated Matrigel® 24-well plate (seeding density: 5.0 × 10^4 cells per well). Subsequently, cells were treated with GL (50 × 10^–6 M), Lf (5 × 10^–6 M) or Lf-GL (1 × 10^–6 M) and incubated for 24 h. Then, Calcein AM was added to each well, and the formation of tubes was observed using fluorescence microscopy. These tubes were quantified using Image J.

The test system of experiment [3] is HUVEC. Nature of the experiment: HMGB1-mediated HUVEC proliferation (CCK-8). It counts as cell-based, human. On the procedure:
(§1) Cell viability was determined using a cell counting kit-8 (CCK-8). U87MG and HUVECs (seeding density: 0.75 × 10^4 cells per well) in 96-well culture plates were treated with GL, Lf, or Lf-GL (25 to 200 × 10^–6 M of GL equivalent concentration) and were incubated for different periods of time (24, 48, and 72 h). After washing with PBS, they were treated with a cell culture medium containing a CCK-8 assay kit (Abbkine) and were incubated at 37 °C and 5% CO2 for 2 h. Then, absorbance was measured at 450 nm in a micro-plate reader (VLBL00D0, Thermo Fisher Scientific). Results were quantified using Sigma Plot (Systat Software, USA). To determine the effect of extracellular HMGB1 in GBM and endothelial cell proliferation, U87MG and HUVECs were seeded in 96-well culture plates (seeding density: 0.75 × 10^4 cells per well) and GL, Lf, or Lf-GL (50 × 10^–6 M GL equivalent concentration) were added to cells with or without HMGB1 protein (U87MG: 0.1 μg mL^−1, and HUVEC: 1 μg mL^−1). Cells were incubated for different periods of time (24, 48, and 72 h).

Experiment [4] relates to U87MG. Put plainly: HMGB1-mediated GBM cell proliferation (CCK-8). It counts as cell-based, human. As for the experimental part: as §1
In experiment [5] the test system is U87MG. Put plainly: Wound-healing scratch (cell migration) assay. It is filed as cell-based, human. Particulars: HMGB1 0.1 μg mL^−1, 24 h. On the procedure: A wound-healing scratch assay was performed in U87MG to evaluate the effect of GL, Lf and Lf-GL treatment on the cancer cell migration. Cells were seeded in 100 mm-cell culture dishes, 2.0 × 10^6 cells per dish. After the cells were grown to 80% confluence, a scratch was made through the cell monolayer with a 200 μL pipet tip, and it was washed with PBS. Photographs (4 ×) were taken in each of three different scratch areas, and their location on the dish was marked. GL (50 × 10^–6 M), Lf (5 × 10^–6 M) or Lf-GL (1 × 10^–6 M) dissolved in serum-free medium were added to cells with or without HMGB1 protein (0.1 μg mL^−1). Then, cells were incubated for 24 h, and the same areas were re-photographed. Migration distances were examined using the scale bar.

Experiment [6] deals with rat aortic rings. Nature of the experiment: Aorta ring assay (ex vivo). Particulars: VEGF 25 ng mL^−1 positive control, 14 days. On the procedure:
An aorta ring assay was conducted to confirm the anti-angiogenesis effect of Lf-GL ex vivo. A 48-well plate was coated with of Matrigel® (100 μL) and was incubated for 30 min or more in 37℃ incubators. In the meantime, thoracic aortas of 7-week-old male SD rats were excised. Then, the fat layer and outer membrane were removed, and rings approximately 1 mm in length were prepared. The prepared aortic rings were seeded on a coated Matrigel® of 48-well plate and were covered with Matrigel®. (100 μL) Subsequently, the aortic ring was treated with a control (with or without 25 ng mL^−1 of VEGF) or different concentrations of Lf-GL complex. Medium was changed once every two days. Fourteen days after treatment, optical images of sprouting microvessels were obtained using microscopy magnification (× 40 or × 100). Sprouting microvessel area was quantified using Image J and Sigma Plot.
Fig. S14. Significant inhibitory effect of Lf-GL in aortic ring angiogenesis. Optical images of vessel regression in aortic ring with Lf-GL treatment. Aortic ring assay was carried out in 48-well plate coated with Matrigel. VEGF-non treated control represents that aortic ring incubated with normal medium. VEGF-treated control represents that aortic ring incubated with 25 ng mL^-1 VEGF-conditioned medium. […]

As for “HMGB1: High-mobility group box-1 protein added to cells as stimulus”, the “Increase of p-ERK level compared to non-treatment” value in experiment [1] amounted to 2.3 times. Moreover, the “Increase of newly generated micro-vessels (tube number)” value in experiment [2] is 21.0 ± 2.1%. In addition, the “Angiogenic potential (viability) of HUVEC vs control” value is given as 108.2 ± 7.9% in experiment [3] (HMGB1 1 μg mL^−1, day 1); 137.9 ± 12.3% in experiment [3] (HMGB1 1 μg mL^−1, day 2); 169.8 ± 18.1% in experiment [3] (HMGB1 1 μg mL^−1, day 3). The “Tumor growth compared to controls not treated with HMGB1” value in experiment [4] (HMGB1 0.1 μg mL^−1, day 1) is on record as 110.7 ± 8.2%; in experiment [4] (HMGB1 0.1 μg mL^−1, day 2), 133.4 ± 1.3%; in experiment [4] (HMGB1 0.1 μg mL^−1, day 3), 140.7 ± 5.2%. Also, the “Migration distance more than HMGB1-nontreated cell” value in experiment [5] is reported as 121.3 ± 42.8 μm.

Regarding VEGF [reference compound], the “Increase of outgrowth of endothelial tubules” value in experiment [6] is 51.1 ± 105.2%.
